The target in test [1] is T1, cloned human H3 receptors (Homo sapiens, UniProt Q9Y5N1).
T1 construct: expressed in transfected cells; host or cells: SK-N-MC cells
Nature of the test: H3 Receptor Binding (Human). The settings on record: cloned human H3 receptors stably expressed in SK-N-MC cells; average of results. Here is the method: Binding of compounds to the cloned human H3 receptors, stably expressed in SK-N-MC cells, was performed as described by Barbier, A. J. et al. (Br. J. Pharmacol. 2004, 143(5), 649-661). Data for compounds tested in this assay are presented in Table 1, as an average of results obtained.

In a further test the target is T2, human H3 receptor (Homo sapiens, UniProt Q9Y5N1).
T2 construct: expressed in transfected cells; host or cells: SK-N-MC cell sublines
Nature of the test: Cyclic AMP Accumulation (human H3). To be noted: SK-N-MC cells expressing reporter construct and human H3 receptor; read-out: Human pA2 (converted). Type of test: cell-based. The source says:
(§1) Sublines of SK-N-MC cells were created that expressed a reporter construct and either the human or rat H3 receptor. The pA2 values were obtained as described by Barbier et al. (2004).

The target of the next test is T3, rat H3 receptor (Rattus norvegicus, UniProt Q9QYN8).
T3 construct: expressed in transfected cells; host or cells: SK-N-MC cell sublines
Put plainly: Cyclic AMP Accumulation (rat H3). The settings on record: SK-N-MC cells expressing reporter construct and rat H3 receptor; read-out: Rat pA2 (converted). The class given is cell-based.
Excerpt: as §1

The target in test [2] is T4, rat H3 receptor (rat brain membranes) (Rattus norvegicus, UniProt Q9QYN8).
T4 construct: A rat brain without cerebellum (Zivic Laboratories Inc., Pittsburgh, Pa.) was homogenized; tissue Zivic Laboratories Inc; host or cells: rat brain without cerebellum, membranes
Nature of the test: H3 Receptor Binding (Rat). To be noted: rat brain membranes without cerebellum; 0.8 nM N-[3H]-α-methylhistamine; 60 min at 25° C. How it is done:
A rat brain without cerebellum (Zivic Laboratories Inc., Pittsburgh, Pa.) was homogenized in 50 mM Tris-HCl/5 mM EDTA and centrifuged at 1,000 rpm for 5 min. The supernatant was removed and recentrifuged at 15,000 rpm for 30 min. Pellets were rehomogenized in 50 mM Tris/5 mM EDTA (pH 7.4). Membranes were incubated with 0.8 nM N-[^3H]-α-methylhistamine plus/minus test compounds for 60 min at 25° C. and harvested by rapid filtration over GF/C glass fiber filters (pretreated with 0.3% polyethylenimine) followed by four washes with buffer. Nonspecific binding was defined in the presence of 100 μM histamine. Inhibitory concentration (responsible for 50% inhibition of maximal effect, IC50) values were determined by a single site curve-fitting program (GraphPad, San Diego, Calif.) and converted to Ki values based on a N-[^3H]-α-methylhistamine dissociation constant (Kd) of 0.8 nM. The following results were obtained: Example 2, 34 nM; Example 3, 33 nM; Example 4,18 nM; Example 5, 9.2 nM.

T1 sequence (Q9Y5N1 whole entry): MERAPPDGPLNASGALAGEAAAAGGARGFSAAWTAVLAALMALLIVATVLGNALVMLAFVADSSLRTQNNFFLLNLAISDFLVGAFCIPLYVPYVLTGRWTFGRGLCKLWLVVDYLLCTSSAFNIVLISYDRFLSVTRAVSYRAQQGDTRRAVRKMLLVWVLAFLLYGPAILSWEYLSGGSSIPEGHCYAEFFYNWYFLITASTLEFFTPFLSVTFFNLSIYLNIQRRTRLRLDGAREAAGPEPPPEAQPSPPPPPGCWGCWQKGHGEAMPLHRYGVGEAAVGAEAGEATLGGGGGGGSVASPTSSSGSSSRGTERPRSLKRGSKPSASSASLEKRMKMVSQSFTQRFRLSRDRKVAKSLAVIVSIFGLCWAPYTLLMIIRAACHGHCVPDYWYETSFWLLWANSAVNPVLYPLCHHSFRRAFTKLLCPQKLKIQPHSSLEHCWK
T2 sequence (Q9Y5N1 whole entry): as above
T3 sequence (Q9QYN8 whole entry): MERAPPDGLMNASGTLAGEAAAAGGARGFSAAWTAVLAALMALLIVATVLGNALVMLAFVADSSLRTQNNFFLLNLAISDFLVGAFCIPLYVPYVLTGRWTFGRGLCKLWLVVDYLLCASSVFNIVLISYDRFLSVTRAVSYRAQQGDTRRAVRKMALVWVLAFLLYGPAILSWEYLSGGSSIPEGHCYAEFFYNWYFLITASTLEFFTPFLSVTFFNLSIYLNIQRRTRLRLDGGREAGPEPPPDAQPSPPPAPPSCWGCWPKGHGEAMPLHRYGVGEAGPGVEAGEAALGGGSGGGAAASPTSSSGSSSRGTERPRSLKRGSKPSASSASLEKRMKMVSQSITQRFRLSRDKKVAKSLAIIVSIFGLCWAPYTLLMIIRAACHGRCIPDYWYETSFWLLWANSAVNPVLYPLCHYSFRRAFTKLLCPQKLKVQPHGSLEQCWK
T4 sequence (Q9QYN8 whole entry): as above

What is called Ki is the dissociation constant of the complex between target and ligand, obtained from inhibition or displacement. Read a high Ki as weaker binding. In test [1], `O=C(c1cnc(Oc2ccc(F)cc2)cn1)N1CCCN(C2CCC2)CC1` [Example 1, (4-Cyclobutyl-[1,4]diazepan-1-yl)-[5-(4-fluoro-phenoxy)-pyrazin-2-yl]-methanone] showed an inhibition constant (Ki) of 2.4 nM. Besides, the Kb at human H3 receptor is 0.871 nM; at rat H3 receptor, 13.5 nM.

On to `O=C(c1cnc(Oc2ccccc2)cn1)N1CCCN(C2CCC2)CC1` [Example 2, (4-Cyclobutyl-[1,4]diazepan-1-yl)-(5-phenoxy-pyrazin-2-yl)-methanone], for which the inhibition constant (Ki) was determined as 2.9 nM in test [1] and 34 nM in test [2].

As for `O=C(c1cnc(Oc2ccc(Cl)cc2)cn1)N1CCCN(C2CCC2)CC1` [Example 3, [5-(4-Chloro-phenoxy)-pyrazin-2-yl]-(4-cyclobutyl-[1,4]diazepan-1-yl)-methanone], the Ki was determined as 3.7 nM in test [1] and 33 nM in test [2]. For the same compound, the Kb at human H3 receptor was 1.2 nM; on rat H3 receptor, 12.6 nM.

Regarding `O=C(c1cnc(Oc2cccc(F)c2)cn1)N1CCCN(C2CCC2)CC1` [Example 4, (4-Cyclobutyl-[1,4]diazepan-1-yl)-[5-(3-fluoro-phenoxy)-pyrazin-2-yl]-methanone], the Ki was determined as 2.6 nM in test [1] and 18 nM in test [2]. The figures for the Kb at human H3 receptor and at rat H3 receptor were 0.537 nM and 6.92 nM, respectively.

In the case of `N#Cc1cccc(Oc2cnc(C(=O)N3CCCN(C4CCC4)CC3)cn2)c1` [Example 5, 3-[5-(4-Cyclobutyl-[1,4]diazepane-1-carbonyl)-pyrazin-2-yloxy]-benzonitrile], the Ki in test [1] came to 1.5 nM; in test [2], 9.2 nM.

For the compound `O=C(c1cnc(Oc2ccc(F)cc2)cn1)N1CCN(C2CCC2)CC1` [Example 6, (4-Cyclobutyl-piperazin-1-yl)-[5-(4-fluoro-phenoxy)-pyrazin-2-yl]-methanone], the inhibition constant Ki in test [1] was found to be 19 nM.

The compound `O=C(c1cnc(Oc2ccccc2)cn1)N1CCN(C2CCC2)CC1` [Example 7, (4-Cyclobutyl-piperazin-1-yl)-(5-phenoxy-pyrazin-2-yl)-methanone] displayed a Ki in test [1] of 36 nM.

`O=C(c1cnc(Oc2ccc(Cl)cc2)cn1)N1CCN(C2CCC2)CC1` [Example 8, [5-(4-Chloro-phenoxy)-pyrazin-2-yl]-(4-cyclobutyl-piperazin-1-yl)-methanone]: affinity in test [1] was put at a Ki of 38 nM.

In test [1], `O=C(c1cnc(Oc2cccc(F)c2)cn1)N1CCN(C2CCC2)CC1` [Example 9, (4-Cyclobutyl-piperazin-1-yl)-[5-(3-fluoro-phenoxy)-pyrazin-2-yl]-methanone] showed an inhibitory constant (Ki) of 37 nM.

Turning to `N#Cc1cccc(Oc2cnc(C(=O)N3CCN(C4CCC4)CC3)cn2)c1` [Example 10, 3-[5-(4-Cyclobutyl-piperazine-1-carbonyl)-pyrazin-2-yloxy]-benzonitrile], the affinity in test [1] corresponds to a Ki of 28 nM.

In the case of `O=C(c1cnc(OC2CCCCC2)cn1)N1CCCN(C2CCC2)CC1` [Example 11, (4-Cyclobutyl-[1,4]diazepan-1-yl)-(5-cyclohexyloxy-pyrazin-2-yl)-methanone], the affinity in test [1], expressed as Ki, was 3.2 nM. Besides, the Kb at human H3 receptor is 0.525 nM; on rat H3 receptor it was 9.55 nM.

Regarding `O=C(c1cnc(OC2CCCCC2)cn1)N1CCN(C2CCC2)CC1` [Example 12, (4-Cyclobutyl-piperazin-1-yl)-(5-cyclohexyloxy-pyrazin-2-yl)-methanone], affinity in test [1] was put at a Ki of 51 nM.

The values are drawn from patent publication US20090131416A1, “SUBSTITUTED PYRAZINYL AMIDE COMPOUNDS AS MODULATORS OF THE HISTAMINE H3 RECEPTOR” (priority 2007, published 2009).
